This note sets out measurements from patent US20050245533A1, “Inhibitors of the 11-beta-hydroxysteroid dehydrogenaseType 1 enzyme and their therapeutic application” (priority 2004, published 2005).

The target in assay [1] is T1, truncated human 11β-HSD-1 enzyme (24-287AA) (Homo sapiens, UniProt P28845).
T1 construct: truncated human 11β-HSD-1 enzyme (24-287AA); made in house; host or cells: E. coli (lysate)
As to the kind of experiment: human 11β-HSD-1 enzymatic Scintillation Proximity Assay (SPA). The class given is biochemical. The procedure: The ability of test compounds to inhibit human 11-βHSD-1 enzymatic activity in vitro was evaluated in a Scintillation Proximity Assay (SPA). Tritiated-cortisone substrate, NADPH cofactor and titrated compound were incubated with truncated human 11β-HSD-1 enzyme (24-287AA) at room temperature to allow the conversion to cortisol to occur. The reaction was stopped by adding a non-specific 11β-HSD inhibitor, 18β-glycyrrhetinic acid. The tritiated cortisol generated was then captured by a mixture of an anti-cortisol monoclonal antibody and SPA beads coated with anti-mouse antibodies. The reaction plate was shaken at room temperature and the radioactivity bound to SPA beads was then measured on a β-scintillation counter. The 11-βHSD-1 assay was carried out in 96-well microtiter plates in a total volume of 220 μl. To start the assay, 188 μl of master mix which contains 17.5 nM ^3H-cortisone, 157.5 nM cortisone, and […] NADPH was added to the wells. In order to drive the reaction in the forward direction, 1 mM G-6-P was also added. […] After shaking for 30 minutes, plates were read on a liquid scintillation counter Topcount. Percent inhibition was calculated based on the background and the maximal signal. […] Percent of inhibition of each compound was calculated relative to the maximal signal and IC50 curves were generated. […]
(In general: In a scintillation proximity assay essentially only radioactivity close to the scintillant gives light.)

A further assay deals with T2, human 11-β-HSD-2 (Homo sapiens, UniProt P80365).
T2 sequence (P80365 1-405): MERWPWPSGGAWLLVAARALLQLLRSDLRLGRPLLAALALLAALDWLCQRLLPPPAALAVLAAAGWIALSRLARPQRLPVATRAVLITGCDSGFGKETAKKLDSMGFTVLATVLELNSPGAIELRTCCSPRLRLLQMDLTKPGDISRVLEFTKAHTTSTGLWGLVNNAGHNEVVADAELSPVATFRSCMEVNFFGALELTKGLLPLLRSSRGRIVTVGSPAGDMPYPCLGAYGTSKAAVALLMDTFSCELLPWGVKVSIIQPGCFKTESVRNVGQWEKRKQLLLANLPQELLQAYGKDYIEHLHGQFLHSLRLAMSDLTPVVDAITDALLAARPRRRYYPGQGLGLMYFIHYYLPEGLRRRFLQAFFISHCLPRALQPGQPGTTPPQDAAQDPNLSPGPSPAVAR
As to the kind of experiment: 11β-HSD-2 Scintillation Proximity Assay (tritiated cortisol, NAD+). The following applies: human enzyme, SPA. The class given is biochemical.

The next assay relates to male CD-1 mice. The experiment in a line: Mouse dehydrocorticosterone challenge model. The following applies: 100 mpk, followed by 11-DHC challenge, 30 min after challenge. The class given is in vivo. The procedure:
Male CD-1 (18-22 g) mice (Charles River, Madison, Wis.) were group housed and allowed free access to food and water. Mice are brought into a quiet procedure room for acclimation the night before the study. Animals are dosed with vehicle or compound at various times (pretreatment period) before being challenged with 11-dehydrocorticosterone (Steraloids Inc., Newport, R.I.). Thirty minutes after challenge, the mice are euthanized with CO2 and blood samples (EDTA) are obtained by cardiac puncture and immediately placed on ice. Blood samples were then spun, the plasma was removed, and the samples frozen until further analysis was performed. Corticosterone levels were obtained by ELISA (American Laboratory Prod., Co., Windham, N.H.) or HPLC/mass spectroscopy.

The next assay relates to ob/ob mice. The experiment in a line: ob/ob mouse model of type 2 diabetes. The following applies: three weeks. The class given is in vivo. The method, then: Male B6.VLep^ob(−/−) (ob/ob) mice and their lean littermates (Jackson Laboratory, Bar Harbor, Me.) were group housed and allowed free access to food (Purina 5015) and water. Mice were 6-7 weeks old at the start of each study. On day 0, animals were weighed and postprandial glucose levels determined (Medisense Precision-X™ glucometer, Abbott Laboratories). […] Animals were weighed, and postprandial glucose measurements were taken weekly throughout the study. On the last day of the study, 16 hours post dose (unless otherwise noted) the mice were euthanized via CO2, and blood samples (EDTA) were taken by cardiac puncture and immediately placed on ice. Whole blood measurements for HbA1c were taken with hand held meters (A1c NOW, Metrika Inc., Sunnyvale Calif.). Blood samples were then spun and plasma was removed and frozen until further analysis. The plasma triglyceride levels were determined according to instructions by the manufacturer (Infinity kit, Sigma Diagnostics, St. Louis Mo.).

Usually IC50 stands for the concentration that gives 50% inhibition. Higher therefore signals weaker potency.

T1 sequence (P28845 24-287): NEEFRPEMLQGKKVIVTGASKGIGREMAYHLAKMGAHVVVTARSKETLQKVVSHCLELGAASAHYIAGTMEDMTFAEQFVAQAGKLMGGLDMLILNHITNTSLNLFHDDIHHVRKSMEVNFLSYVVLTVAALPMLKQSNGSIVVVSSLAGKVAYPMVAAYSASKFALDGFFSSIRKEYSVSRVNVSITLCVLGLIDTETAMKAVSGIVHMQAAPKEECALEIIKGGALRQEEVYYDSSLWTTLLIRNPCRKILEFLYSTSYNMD

For the compound `CC(C(=O)NC1C2CC3CC(C2)CC1C3)N1CCC(O)CC1` (stereo not shown) [Compound C, N-2-Adamantyl-2-(4-hydroxypiperidin-1-yl)propanamide], the results for the IC50 (in assay [1]; at human 11-β-HSD-2) were 34 nM and > 10000 nM, respectively. The Plasma corticosterone level is recorded as 203 ± 19 with male CD-1 mice (pretreatment period 0.5 hours) and 382 ± 40 in the assay with male CD-1 mice (pretreatment period 5 hours). Moreover, the “% HbA1c” value in the assay with ob/ob mice (30 mpk twice daily) came out at 7.4 ± 0.7%; in the assay with ob/ob mice (100 mpk twice daily), 5.7 ± 0.3%. Also, the Plasma glucose turned out to be 227 ± 17 mg/dL with ob/ob mice (30 mpk twice daily) and 186 ± 18 mg/dL in the assay with ob/ob mice (100 mpk twice daily). For the same compound, the Plasma triglycerides with ob/ob mice (30 mpk twice daily) is reported as 288 ± 26 mg/dL; in the assay with ob/ob mice (100 mpk twice daily) it was 323 ± 34 mg/dL.
